Experimental data from patent publication US8513446B2, “Stable crystal modifications of DOPC” (Merck Patent GmbH, priority 2008, dated 2013).

Legend:
[1] = Hygroscopicity of solid DOPC; assay type: physicochemical
From the text: In addition, waxy DOPC can only be comminuted with difficulty and, like lyophilised DOPC, can only be weighed out with difficulty. This makes handling of this compound much more difficult.

[2] = stored under a protective gas at −20° C.; cited from earlier work
[3] = Storage stability of crystalline DOPC, residual content by HPLC; assay type: physicochemical; conditions: exclusion of air
Description: In order to determine the stability of crystalline DOPC, the substances are stored together with comparative samples at 25° C. and 60% relative humidity and at 40° C. and 75% relative humidity with exclusion of air. The residual content of DOPC is measured at periodic intervals and indicated compared with the initial value. Purity and content of DOPC are determined by HPLC. For the type I crystal modification, the following values were found: […]

[4] = 25° C./60% relative humidity, storage time 0 months
[5] = 25° C./60% relative humidity, storage time 3 months
[6] = 25° C./60% relative humidity, storage time 6 months
[7] = 25° C./60% relative humidity, storage time 9 months
[8] = 25° C./60% relative humidity, storage time 12 months
[9] = 25° C./60% relative humidity, storage time 18 months
[10] = 40° C./75% relative humidity, storage time 0 months
[11] = 40° C./75% relative humidity, storage time 3 months
[12] = 40° C./75% relative humidity, storage time 6 months
[13] = 40° C./75% relative humidity, storage time 9 months
[14] = 40° C./75% relative humidity, storage time 12 months

CCCCCCCC/C=C\CCCCCCCC(=O)OC[C@H](COP(=O)([O-])OCC[N+](C)(C)C)OC(=O)CCCCCCC/C=C\CCCCCCCC [amorphous DOPC, reference compound]
hygroscopicity [1]: extremely hygroscopic

CCCCCCCC/C=C\CCCCCCCC(=O)OC[C@H](COP(=O)([O-])OCC[N+](C)(C)C)OC(=O)CCCCCCC/C=C\CCCCCCCC [lyophilised DOPC]
guaranteed shelf life [2]: about 12 months

CCCCCCCC/C=C\CCCCCCCC(=O)OC[C@H](COP(=O)([O-])OCC[N+](C)(C)C)OC(=O)CCCCCCC/C=C\CCCCCCCC [Crystalline DOPC]
hygroscopicity [1]: improved hygroscopicity

CCCCCCCC/C=C\CCCCCCCC(=O)OC[C@H](COP(=O)([O-])OCC[N+](C)(C)C)OC(=O)CCCCCCC/C=C\CCCCCCCC [type I crystalline (R)-DOPC, 1,2-dioleoyl-sn-glycero-3-phosphocholine]
purity of DOPC (HPLC) compared with the initial value [3, 4]: 100.0 Area-%
residual content of DOPC compared with the initial value [3, 4]: 100.0 % by weight
purity of DOPC (HPLC) compared with the initial value [3, 5]: 100.0 Area-%
residual content of DOPC compared with the initial value [3, 5]: 100.9 % by weight
purity of DOPC (HPLC) compared with the initial value [3, 6]: 100.0 Area-%
residual content of DOPC compared with the initial value [3, 6]: 99.3 % by weight
purity of DOPC (HPLC) compared with the initial value [3, 7]: 100.0 Area-%
residual content of DOPC compared with the initial value [3, 7]: 100.8 % by weight
purity of DOPC (HPLC) compared with the initial value [3, 8]: 99.7 Area-%
residual content of DOPC compared with the initial value [3, 8]: 100.4 % by weight
purity of DOPC (HPLC) compared with the initial value [3, 9]: 99.8 Area-%
residual content of DOPC compared with the initial value [3, 9]: 100.6 % by weight
purity of DOPC (HPLC) compared with the initial value [3, 10]: 100.0 Area-%
residual content of DOPC compared with the initial value [3, 10]: 100.0 % by weight
purity of DOPC (HPLC) compared with the initial value [3, 11]: 99.9 Area-%
residual content of DOPC compared with the initial value [3, 11]: 100.0 % by weight
purity of DOPC (HPLC) compared with the initial value [3, 12]: 99.8 Area-%
residual content of DOPC compared with the initial value [3, 12]: 98.4 % by weight
purity of DOPC (HPLC) compared with the initial value [3, 13]: 99.8 Area-%
residual content of DOPC compared with the initial value [3, 13]: 99.8 % by weight
purity of DOPC (HPLC) compared with the initial value [3, 14]: 99.7 Area-%
residual content of DOPC compared with the initial value [3, 14]: 99.5 % by weight
